# Results reported in ChEMBL document CHEMBL1157773, “Cytotoxic polyphenols from the marine-derived fungus Penicillium expansum” (J Nat Prod, 2010).
# pIC50: −log10 of the molar value.
# What was measured:
# [1] = system: HL-60; assay: Cytotoxicity against human HL60 cells after 72 hrs by MTT assay; assay type: functional, cell-based; conditions: for pIC50: Homo sapiens, HL-60, 72 h, read-out: IC50; for IC50: hl-60
# [2] = system: A549; assay: Cytotoxicity against human A549 cells after 72 hrs by SRB assay; assay type: functional, cell-based
SMILES,pIC50 [1],IC50 [1],IC50 [2]
"COC(C)(CCCC(C)C)c1ccc(Cc2c(C)cc(Oc3cc(C)cc(O)c3)cc2O)cc1O (single isomer, unassigned) [EXPANSOL A]",4.80,–,–
Cc1cc(O)cc(Oc2cc(C)c(Cc3ccc([C@](C)(O)CCCC(C)C)c(O)c3)c(O)c2)c1 [EXPANSOL B],5.27,–,–
CC(=O)OC[C@@H](C)CCC[C@](C)(O)c1ccc(C(=O)O)cc1O [12-ACETOXYSYDONIC ACID],–,Not Active,Not Active
C=C(C)CCC[C@](C)(O)c1ccc(C(=O)O)cc1O [11-DEHYDROSYDONIC ACID],–,Not Active,Not Active
